Values of other authors in patent US20130237424A1 (Cosmo Oil Co., LTD., priority 2010, published 2013).

Test system: plants
Conditions: given with being dissolved in a solution

In the case of NCC(=O)CCC(=O)O [5-aminolevulinic acid], the “duration of growth promoting effect” value is given as “about 2 weeks”.
